Results taken from ChEMBL document CHEMBL1124594, “4-(Phosphonoalkyl)- and 4-(phosphonoalkenyl)-2-piperidinecarboxylic acids: synthesis, activity at N-methyl-D-aspartic acid receptors, and anticonvulsant activity” (J Med Chem, 1989).

How the values were obtained:
Mus musculus [1] = assay: Effective dose of the intraperitoneally administered compound causing loss of traction reflex, was tested in N-methyl-D-aspartic acid convulsions model; format: functional; details: ip
Mus musculus [2] = assay: Effective dose of the intraperitoneally administered compound protecting mice against tonic seizures, was tested in N-methyl-D-aspartic acid convulsions model; format: functional; details: ip
Glutamate NMDA receptor [3] = assay: Inhibition of [3H]-CGS- 19755 binding to N-methyl-D-aspartic acid receptors in rat crude synaptic membranes; format: cell membranes, Membrane
Glutamate NMDA receptor [4] = assay: Inhibition of [3H]-CGS- 19755 binding to N-methyl-D-aspartate glutamate receptor in rat crude synaptic membranes; format: cell membranes, Membrane

| SMILES | IC50 (Glutamate NMDA receptor [3]) | IC50 (Glutamate NMDA receptor [4]) | ED50 (Mus musculus [1]) | ED50 (Mus musculus [2]) |
| --- | --- | --- | --- | --- |
| O=C(O)C1CN(CCCP(=O)(O)O)CCN1 (stereo not drawn) | 220 nM |  | 6.1 mg/kg | 1.9 mg/kg |
| C[C@@H]1C[C@H](CP(=O)(O)O)C[C@H](C(=O)O)N1 |  | 1600 nM | 84 mg/kg | 34 mg/kg |
| C[C@H]1[C@@H](CP(=O)(O)O)CCN[C@H]1C(=O)O |  | 1300 nM | 33 mg/kg | 26 mg/kg |
| N[C@H](CCCCCP(=O)(O)O)C(=O)O | 912 nM |  | 188 mg/kg | 34 mg/kg |
| O=C(O)[C@H]1C[C@@H](CCCP(=O)(O)O)CCN1 | 98 nM |  | 5.4 mg/kg | 2 mg/kg |
| CN1CC[C@H](CP(=O)(O)O)C[C@@H]1C(=O)O |  | 28000 nM |  |  |
| N[C@@H](CCCP(=O)(O)O)C(=O)O | 350 nM |  | > 154 mg/kg | > 154 mg/kg |
| O=C(O)[C@@H]1C[C@H](CP(=O)(O)O)CCN1 [SELFOTEL] | 32 nM |  | 5.4 mg/kg | 2.1 mg/kg |

Continued by falling IC50 (Glutamate NMDA receptor [4]), values first:

| IC50 (Glutamate NMDA receptor [3]) | IC50 (Glutamate NMDA receptor [4]) | SMILES | ED50 (Mus musculus [1]) | ED50 (Mus musculus [2]) |
| --- | --- | --- | --- | --- |
|  | 1300 nM | CC(C)([C@H]1CCN[C@@H](C(=O)O)C1)P(=O)(O)O |  |  |
|  | 800 nM | CC([C@H]1CCN[C@@H](C(=O)O)C1)P(=O)(O)O (stereo partly drawn) | 64 mg/kg | 21 mg/kg |
|  | 452 nM | O=C(O)[C@H]1C[C@H](CP(=O)(O)O)CCN1 |  |  |
|  | 105 nM | O=C(O)[C@H]1C[C@H](CCCP(=O)(O)O)CCN1 |  |  |
|  | 80 nM | O=C(O)[C@H]1C[C@H](C/C=C/P(=O)(O)O)CCN1 | 20 mg/kg | 10 mg/kg |
|  | 78 nM | C[C@H]1CN[C@@H](C(=O)O)C[C@H]1CP(=O)(O)O | 29 mg/kg | 7.1 mg/kg |
|  | 72 nM | O=C(O)[C@H]1C[C@@H](C/C=C/P(=O)(O)O)CCN1 | 14 mg/kg | 2.5 mg/kg |
|  | 39 nM | O=C(O)[C@H]1C[C@H](/C=C/CP(=O)(O)O)CCN1 | 14 mg/kg | 8.3 mg/kg |
|  | 14 nM | O=C(O)[C@H]1C[C@@H](/C=C/CP(=O)(O)O)CCN1 | 1.9 mg/kg | 1.2 mg/kg |
